Data on 55 compounds can be found in patent US20260008770A1, “CBL-B INHIBITORS AND METHODS OF USES THEREOF” (Insilico Medicine IP Limited, priority 2022, published 2026).

The target of the first assay is Cbl-b protein (CBL-B, GST-Tag) (Homo sapiens (Human), UniProt Q13191). The assay is described as follows: HTRF based binding assay, affinity to Cbl-b protein.
Sequence of Cbl-b protein (CBL-B, GST-Tag) (Q13191 whole entry): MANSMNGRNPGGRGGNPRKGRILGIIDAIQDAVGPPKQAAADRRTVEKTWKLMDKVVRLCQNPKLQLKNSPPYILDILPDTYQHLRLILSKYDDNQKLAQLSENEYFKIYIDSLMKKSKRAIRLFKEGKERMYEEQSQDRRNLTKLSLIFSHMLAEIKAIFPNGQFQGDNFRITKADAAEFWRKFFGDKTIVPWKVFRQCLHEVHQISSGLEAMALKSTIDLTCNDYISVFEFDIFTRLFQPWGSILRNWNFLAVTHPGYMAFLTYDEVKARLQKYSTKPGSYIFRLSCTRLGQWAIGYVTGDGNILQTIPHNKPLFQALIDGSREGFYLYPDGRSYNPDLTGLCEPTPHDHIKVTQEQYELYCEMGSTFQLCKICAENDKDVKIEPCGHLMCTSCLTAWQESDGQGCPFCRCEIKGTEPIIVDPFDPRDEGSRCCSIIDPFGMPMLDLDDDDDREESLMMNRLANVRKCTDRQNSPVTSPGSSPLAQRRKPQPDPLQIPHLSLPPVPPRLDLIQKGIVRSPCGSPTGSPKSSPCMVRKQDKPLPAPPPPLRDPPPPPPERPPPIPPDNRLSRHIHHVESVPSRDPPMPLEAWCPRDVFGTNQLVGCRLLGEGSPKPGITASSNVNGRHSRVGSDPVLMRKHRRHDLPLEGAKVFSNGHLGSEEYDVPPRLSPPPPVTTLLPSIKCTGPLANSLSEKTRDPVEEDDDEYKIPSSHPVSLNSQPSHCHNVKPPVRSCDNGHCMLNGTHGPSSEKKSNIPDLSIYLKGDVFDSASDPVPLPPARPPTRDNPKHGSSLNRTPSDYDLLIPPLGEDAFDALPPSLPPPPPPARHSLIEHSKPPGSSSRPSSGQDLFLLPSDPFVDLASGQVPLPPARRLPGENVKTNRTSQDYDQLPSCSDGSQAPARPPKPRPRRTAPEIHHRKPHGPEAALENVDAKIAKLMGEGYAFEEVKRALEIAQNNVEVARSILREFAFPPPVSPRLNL
Details: not given
On the technique in general: Time-resolved FRET reads energy transfer from a long-lived donor to a nearby acceptor.
Turning to `CC1CC(c2ccnc(-n3cnc4c(C(F)(F)F)c(CN5CCC[C@H](C)C5)[nH]c4c3=O)c2)(c2nncn2C)C1` (stereo partly shown) [Example 46], the IC50 lay in the range of 50 to 500 nM.

On to `C[C@H]1CCCN(Cc2cc3c(=O)n(-c4cccc([C@]5(c6nncn6C)C[C@@H](C)C5)c4)cnc3c(C(F)(F)F)n2)C1` [Example 62], for which the IC50 is 20 to 50 nM.

For `C[C@H]1CCCN(Cc2cc(C(F)(F)F)c3ncn(-c4cc(C5(c6nncn6C)CC6(CC6)C5)ccn4)c(=O)c3c2)C1` [Example 118], the IC50 was 20 to 50 nM.

`Cn1cnnc1[C@]1(c2ccnc(-n3ncc4c(C(F)(F)F)cc(CN5CCC6(CC6)C5)cc4c3=O)c2)C[C@H](C)C1` [Example 36] returned a concentration for half-maximal inhibition (IC50) of 20 to 50 nM.

For the compound `Cn1cnnc1[C@]1(c2cccc(-n3cc4c(C(F)(F)F)cc(CN5CCC[C@H](OC(F)F)C5)cc4n3)c2)C[C@H](C)C1` [Example 74], the IC50 was 50 to 500 nM.

In turn, `COCC1CC(c2cccc(-n3cc4c(C(F)(F)F)cc(CN5CCC[C@H](C)C5)cc4n3)c2)(c2nncn2C)C1` (stereo partly shown) [Example 33] returned an IC50 of 20 to 50 nM.

With `C[C@H]1CCCN(Cc2cc(C(F)(F)F)c3ncn(-c4cc([C@]5(c6nncn6C)C[C@@H](CF)C5)ccn4)c(=O)c3c2)C1` [Example 114], the IC50 was in the range of 20 to 50 nM.

`CC1CC(c2cncc(-n3cc4c(C(F)(F)F)cc(CN5CCC[C@H](C)C5)cc4n3)c2)(c2nncn2C)C1` (stereo partly shown) [Example 91] had a concentration for half-maximal inhibition (IC50) of 20 to 50 nM.

Regarding `CC1CC(c2cc(Cl)nc(-n3cnc4c(C(F)(F)F)cc(CN5CCC[C@H](C)C5)cc4c3=O)c2)(c2nncn2C)C1` (stereo partly shown) [Example 41], the IC50 was 20 to 50 nM.

For the compound `CC1CC(c2cccc(-c3nc4cc(CN5CCC[C@H](C)C5)cc(C(F)(F)F)c4n3C)c2)(c2nncn2C)C1` (stereo partly shown) [Example 8], the IC50 was 50 to 500 nM.

Turning to `C[C@H]1CCCN(Cc2cc(C(F)(F)F)c3cn(-c4cccc(C5(c6nncn6C)CC(F)(F)C5)c4)nc3c2)C1` [Example 87], the IC50 was in the range of 20 to 50 nM.

`CC1CC(c2cccc(-c3n[nH]c4c(CN5CCC[C@H](C)C5)cc(C(F)(F)F)nc34)c2)(c2nncn2C)C1` (stereo partly drawn) [Example 5, (S)-3-(3-(3-methyl-1-(4-methyl-4H-1,2,4-triazol-3-yl)cyclobutyl)phenyl)-7-((3-methylpiperidin-1-yl)methyl)-5-(trifluoromethyl)-1H-pyrazolo[4,3-b]pyridine] returned an IC50 of 50 to 500 nM.

For the compound `Cc1cc(C2(c3nncn3C)CC(C)C2)cc(-n2cnc3c(C(F)(F)F)cc(CN4CCC[C@H](C)C4)cc3c2=O)n1` (stereo partly shown) [Example 45], the IC50 is 50 to 500 nM.

`CC1CC(c2cccc(NC(=O)c3cc(CN4CCC[C@H](C)C4)cc(C(F)(F)F)c3)c2)(c2nncn2C)C1` (stereo partly shown) [Example 30] showed an IC50 of 20 to 50 nM.

`C[C@H]1CCCN(Cc2cc(C(F)(F)F)c3ncn(-c4cccc(C5(Cc6nncn6C)COC5)c4)c(=O)c3c2)C1` [Example 80, (S)-3-(3-(3-((4-methyl-4H-1,2,4-triazol-3-yl)methyl)oxetan-3-yl)phenyl)-6-((3-methylpiperidin-1-yl)methyl)-8-(trifluoromethyl)quinazolin-4(3H)-one] came in with an IC50 of 500 to 1000 nM.

Regarding `C[C@H]1CCCN(Cc2cc(C(F)(F)F)c3cn(-c4cccc([C@]5(c6nncn6C)C[C@@H](OC(F)(F)F)C5)c4)nc3c2)C1` [Example 92], the IC50 is 50 to 500 nM.

As to `CC1CC(c2cccc(-n3ncc4c(C(F)(F)F)cc(CN5CCCCC5)cc4c3=O)c2)(c2nncn2C)C1` (stereo not shown) [Example 22], the IC50 is 50 to 500 nM.

With `CC1CC(c2cc(C#N)cc(-n3cc4c(C(F)(F)F)cc(CN5CCC[C@H](C)C5)cc4n3)c2)(c2nncn2C)C1` (stereo partly shown) [Example 53], the IC50 lay in the range of 50 to 500 nM.

`C[C@H]1CCCN(Cc2cc(C(F)(F)F)c3cn(-c4cc([C@]5(c6nncn6C)C[C@H](C)C5)ccn4)nc3c2)C1` [Example 71] displayed an IC50 of 50 to 500 nM.

Consider `C[C@H]1CCCN(Cc2cc(C(F)(F)F)c3cn(-c4cccc(C5(c6nncn6C)CC(OC(F)F)C5)c4)nc3c2)C1` (stereo partly shown) [Example 59], for which the IC50 lay within 50 to 500 nM.

`[2H]C([2H])([2H])n1cnnc1C1(c2ccnc(-n3cnc4c(C(F)(F)F)cc(CN5CCC[C@H](C)C5)cc4c3=O)c2)CC(C)C1` (stereo partly shown) [Example 121] showed a half-inhibitory concentration (IC50) of less than 20 nM.

In turn, `C#C[C@H]1CCCN(Cc2cc(C(F)(F)F)c3ncn(-c4cc([C@]5(c6nncn6C)C[C@@H](C)C5)ccn4)c(=O)c3c2)C1` [Example 61] registered an IC50 of 20 to 50 nM.

Compound `CC1CC(c2cc(CO)cc(-n3cc4c(C(F)(F)F)cc(CN5CCC[C@H](C)C5)cc4n3)c2)(c2nncn2C)C1` (stereo partly shown) [Example 60] displayed a 50% inhibitory concentration (IC50) of 50 to 500 nM.

Regarding `CC1=CCCN(Cc2cc(C(F)(F)F)c3cnn(-c4cccc(C5(c6nncn6C)CC(C)C5)c4)c(=O)c3c2)C1` (stereo not shown) [Example 21], the concentration for half-maximal inhibition (IC50) was 50 to 500 nM.

In the case of `C[C@H]1CCCN(Cc2cc(C(F)(F)F)c3ncn(-c4cc([C@]5(c6nncn6C6CCC6)C[C@@H](C)C5)ccn4)c(=O)c3c2)C1` [Example 110], the IC50 is 50 to 500 nM.

Regarding `CC1=CCCN(Cc2cc(C(F)(F)F)c3cn(-c4cccc(C5(c6nncn6C)CC(C)C5)c4)nc3c2)C1` (stereo not shown) [Example 79], the IC50 fell in the range of 20 to 50 nM.

As for `Cn1cnnc1[C@]1(c2ccnc(-n3cnc4c(C(F)(F)F)cc(CN5CCC6(CCO6)C5)cc4c3=O)c2)C[C@H](C)C1` (stereo partly shown) [Example 120], the IC50 lay in the range of 500 to 1000 nM.

As to `C[C@H]1CCCN(Cc2cc(C(=O)Nc3cccc(C(c4nncn4C)C4CCC4)c3)cc(C(F)(F)F)c2)C1` (stereo partly shown) [Example 31], the IC50 fell in the range of 50 to 500 nM.

The assay is the same for the next values; noted with them: HTRF binding, CBL-B (GST-Tag), fluorescence labeled Cbl-b binding probe.
The compound `CC1CC(c2cc(C(N)=O)cc(-n3cc4c(C(F)(F)F)cc(CN5CCC[C@H](C)C5)cc4n3)c2)(c2nncn2C)C1` (stereo partly shown) [Example 52] showed a concentration for half-maximal inhibition (IC50) of less than 20 nM.

The compound `[2H]C([2H])(c1cc(C(F)(F)F)c2ncn(-c3cccc([C@]4(c5nncn5C)C[C@@H](C)C4)c3)c(=O)c2c1)N1CCC[C@H](C)C1` [Example 104] had an IC50 of less than 20 nM.

As for `CC1CC(c2cccc(-n3ccc4c(C(F)(F)F)cc(CN5CCC[C@H](C)C5)cc4c3=O)c2)(c2nncn2C)C1` (stereo partly shown) [Example 23], the half-maximal inhibitory concentration (IC50) was less than 20 nM.

`COc1cc([C@]2(c3nncn3C)C[C@@H](C)C2)cc(-n2cnc3c(C(F)(F)F)cc(CN4CCC[C@H](C)C4)cc3c2=O)n1` [Example 115] returned an IC50 of less than 20 nM.

Take `CC1CC(c2cccc(-n3cc4c(C(F)(F)F)cc(CN5CCC[C@H](C)C5)cc4n3)c2)(c2nncn2C)C1` (stereo partly shown) [Example 7]: the IC50 is less than 20 nM.

Compound `C[C@H]1CCCN(Cc2cc(F)c3ncn(-c4cc([C@]5(c6nncn6C)C[C@@H](C)C5)cc(OCF)n4)c(=O)c3c2)C1` [Example 111] displayed an IC50 of less than 20 nM.

The compound `CC1CC(c2cccc(NC(=O)c3cc(CN4CCC[C@H](C)C4)cc4c3OCCC4(F)F)c2)(c2nncn2C)C1` (stereo partly shown) [Example 24] returned an IC50 of less than 20 nM.

`C[C@H]1CCCN(Cc2cc(C(F)(F)F)c3ncn(-c4cc([C@]5(c6nncn6C(F)F)C[C@@H](C)C5)ccn4)c(=O)c3c2)C1` [Example 48] registered an IC50 of less than 20 nM.

In turn, `C[C@H]1CCCN(Cc2cc(C(F)(F)F)c3cn(-c4cccc(C5(Cc6nncn6C)COC5)c4)nc3c2)C1` [Example 88] returned an IC50 of less than 20 nM.

The compound `CC1CC(c2cccc(-n3cc(C(F)(F)F)c4ccc(CN5CCC[C@H](C)C5)cc4c3=O)c2)(c2nncn2C)C1` (stereo partly shown) [Example 12] returned a concentration for half-maximal inhibition (IC50) of less than 20 nM.

With `C[C@H]1CCCN(Cc2cc(C(F)(F)F)c3ncn(-c4cc([C@]5(c6nncn6C)C[C@@H](C)C5)ccn4)c(=O)c3c2)C1` [Example 78], the half-inhibitory concentration (IC50) is less than 20 nM.

`CC1CC(c2cccc(-n3ncc4c(C(F)(F)F)cc(CN5CCO[C@H](C)C5)cc4c3=O)c2)(c2nncn2C)C1` (stereo partly shown) [Example 10]: the IC50 is greater than 1000 nM.

`C#CC1CC(c2ccnc(-n3cnc4c(C(F)(F)F)cc(CN5CCC[C@H](C)C5)cc4c3=O)c2)(c2nncn2C)C1` (stereo partly shown) [Example 101]: the IC50 was less than 20 nM.

`C#C[C@H]1CCCN(Cc2cc(C(F)(F)F)c3cn(-c4cccc([C@]5(c6nncn6C)C[C@@H](C)C5)c4)nc3c2)C1` [Example 56]: the IC50 was less than 20 nM.

Compound `Cn1cnnc1CC1(c2cccc(-n3cc4c(C(F)(F)F)cc(CN5CCC[C@H](C6CC6)C5)cc4n3)c2)COC1` [Example 64] returned a half-maximal inhibitory concentration (IC50) of less than 20 nM.

The compound `C[C@H]1CCCN(Cc2cc(C(=O)Nc3cccc([C@@H](c4nncn4C)C4COC4)c3)cc(C(F)(F)F)c2)C1` [Example 26] gave an IC50 greater than 1000 nM.

Compound `Cn1cnnc1[C@]1(c2cc(OCF)nc(-n3cnc4c(C(F)(F)F)cc(CN5CCCC(C)(F)C5)cc4c3=O)c2)C[C@H](C)C1` (stereo partly shown) [Example 108] showed a half-inhibitory concentration (IC50) of less than 20 nM.

`C[C@@H]1CN(Cc2ccc3ncn(-c4cc([C@]5(c6nncn6C)C[C@@H](C)C5)cc(OCF)n4)c(=O)c3c2)CCC1F` (stereo partly shown) [Example 123] yielded an IC50 of less than 20 nM.

The compound `C[C@H]1CCCN(Cc2cc(C(F)(F)F)c3cn(-c4cccc(C5(c6nncn6C)CC(CC#N)C5)c4)nc3c2)C1` (stereo partly shown) [Example 90] showed an IC50 of less than 20 nM.

As to `[2H]c1nnc(C2(c3ccnc(-n4cnc5c(C(F)(F)F)cc(CN6CCC[C@H](C)C6)cc5c4=O)c3)CC(C)C2)n1C(F)F` (stereo partly shown) [Example 113], the IC50 was less than 20 nM.

With `Cn1cnnc1[C@]1(c2ccnc(-n3cnc4c(C(F)(F)F)cc(CN5CCC[C@H](CF)C5)cc4c3=O)c2)C[C@H](C)C1` [Example 105], the IC50 was less than 20 nM.

With `C[C@H]1CCCN(Cc2cc(C(F)(F)F)c3sc(-c4cccc(C5(Cc6nncn6C)COC5)c4)nc3c2)C1` [Example 16], the IC50 is less than 20 nM.

Consider `C[C@H]1CCCN(Cc2cc3c(=O)n(-c4cc([C@]5(c6nncn6C)C[C@@H](C)C5)cc(OCF)n4)cnc3cc2F)C1` [Example 100], for which the concentration for half-maximal inhibition (IC50) is less than 20 nM.

Regarding `C=Cc1cc(C2(c3nncn3C)CC(C)C2)cc(-n2cnc3c(C(F)(F)F)cc(CN4CCC[C@H](C)C4)cc3c2=O)n1` (stereo partly shown) [Example 49], the IC50 is less than 20 nM.

`CC1CC(c2cc(OC(F)F)nc(-n3cnc4c(C(F)(F)F)cc(CN5CCC[C@H](C)C5)cc4c3=O)c2)(c2nncn2C)C1` (stereo partly shown) [Example 117] displayed an IC50 of less than 20 nM.

In turn, `Cn1cnnc1[C@]1(c2cc(OCF)nc(-n3cnc4c(C(F)(F)F)cc(CN5CCC[C@H](F)C5)cc4c3=O)c2)C[C@H](C)C1` [Example 102] gave an IC50 of less than 20 nM.

Compound `CC1CC(c2cncc(-n3ncc4c(C(F)(F)F)cc(CN5CCC[C@H](C)C5)cc4c3=O)c2)(c2nncn2C)C1` (stereo partly shown) [Example 77] returned an IC50 of less than 20 nM.

For orientation: IC50 means the concentration at which inhibition is half-maximal. Low readings indicate inhibition by little substance, high ones a need for much substance.
